The experiment concerns the target DNA polymerase theta (Homo sapiens, UniProt O75417). Kind of experiment: Inhibition of human DNA polymerase theta (1 to 899 residues) ATPase activity using dT50 single strand DNA as substrate by NADH oxidation-coupled enzymatic assay.

Results on one compound are retold here after ChEMBL document CHEMBL5393459, “O-linked thiadiazolyl compounds as dna polymerase theta inhibitors” (2022).

pIC50: −log10 of the molar value.

Sequence of DNA polymerase theta (O75417 whole entry, the tested form may be a part): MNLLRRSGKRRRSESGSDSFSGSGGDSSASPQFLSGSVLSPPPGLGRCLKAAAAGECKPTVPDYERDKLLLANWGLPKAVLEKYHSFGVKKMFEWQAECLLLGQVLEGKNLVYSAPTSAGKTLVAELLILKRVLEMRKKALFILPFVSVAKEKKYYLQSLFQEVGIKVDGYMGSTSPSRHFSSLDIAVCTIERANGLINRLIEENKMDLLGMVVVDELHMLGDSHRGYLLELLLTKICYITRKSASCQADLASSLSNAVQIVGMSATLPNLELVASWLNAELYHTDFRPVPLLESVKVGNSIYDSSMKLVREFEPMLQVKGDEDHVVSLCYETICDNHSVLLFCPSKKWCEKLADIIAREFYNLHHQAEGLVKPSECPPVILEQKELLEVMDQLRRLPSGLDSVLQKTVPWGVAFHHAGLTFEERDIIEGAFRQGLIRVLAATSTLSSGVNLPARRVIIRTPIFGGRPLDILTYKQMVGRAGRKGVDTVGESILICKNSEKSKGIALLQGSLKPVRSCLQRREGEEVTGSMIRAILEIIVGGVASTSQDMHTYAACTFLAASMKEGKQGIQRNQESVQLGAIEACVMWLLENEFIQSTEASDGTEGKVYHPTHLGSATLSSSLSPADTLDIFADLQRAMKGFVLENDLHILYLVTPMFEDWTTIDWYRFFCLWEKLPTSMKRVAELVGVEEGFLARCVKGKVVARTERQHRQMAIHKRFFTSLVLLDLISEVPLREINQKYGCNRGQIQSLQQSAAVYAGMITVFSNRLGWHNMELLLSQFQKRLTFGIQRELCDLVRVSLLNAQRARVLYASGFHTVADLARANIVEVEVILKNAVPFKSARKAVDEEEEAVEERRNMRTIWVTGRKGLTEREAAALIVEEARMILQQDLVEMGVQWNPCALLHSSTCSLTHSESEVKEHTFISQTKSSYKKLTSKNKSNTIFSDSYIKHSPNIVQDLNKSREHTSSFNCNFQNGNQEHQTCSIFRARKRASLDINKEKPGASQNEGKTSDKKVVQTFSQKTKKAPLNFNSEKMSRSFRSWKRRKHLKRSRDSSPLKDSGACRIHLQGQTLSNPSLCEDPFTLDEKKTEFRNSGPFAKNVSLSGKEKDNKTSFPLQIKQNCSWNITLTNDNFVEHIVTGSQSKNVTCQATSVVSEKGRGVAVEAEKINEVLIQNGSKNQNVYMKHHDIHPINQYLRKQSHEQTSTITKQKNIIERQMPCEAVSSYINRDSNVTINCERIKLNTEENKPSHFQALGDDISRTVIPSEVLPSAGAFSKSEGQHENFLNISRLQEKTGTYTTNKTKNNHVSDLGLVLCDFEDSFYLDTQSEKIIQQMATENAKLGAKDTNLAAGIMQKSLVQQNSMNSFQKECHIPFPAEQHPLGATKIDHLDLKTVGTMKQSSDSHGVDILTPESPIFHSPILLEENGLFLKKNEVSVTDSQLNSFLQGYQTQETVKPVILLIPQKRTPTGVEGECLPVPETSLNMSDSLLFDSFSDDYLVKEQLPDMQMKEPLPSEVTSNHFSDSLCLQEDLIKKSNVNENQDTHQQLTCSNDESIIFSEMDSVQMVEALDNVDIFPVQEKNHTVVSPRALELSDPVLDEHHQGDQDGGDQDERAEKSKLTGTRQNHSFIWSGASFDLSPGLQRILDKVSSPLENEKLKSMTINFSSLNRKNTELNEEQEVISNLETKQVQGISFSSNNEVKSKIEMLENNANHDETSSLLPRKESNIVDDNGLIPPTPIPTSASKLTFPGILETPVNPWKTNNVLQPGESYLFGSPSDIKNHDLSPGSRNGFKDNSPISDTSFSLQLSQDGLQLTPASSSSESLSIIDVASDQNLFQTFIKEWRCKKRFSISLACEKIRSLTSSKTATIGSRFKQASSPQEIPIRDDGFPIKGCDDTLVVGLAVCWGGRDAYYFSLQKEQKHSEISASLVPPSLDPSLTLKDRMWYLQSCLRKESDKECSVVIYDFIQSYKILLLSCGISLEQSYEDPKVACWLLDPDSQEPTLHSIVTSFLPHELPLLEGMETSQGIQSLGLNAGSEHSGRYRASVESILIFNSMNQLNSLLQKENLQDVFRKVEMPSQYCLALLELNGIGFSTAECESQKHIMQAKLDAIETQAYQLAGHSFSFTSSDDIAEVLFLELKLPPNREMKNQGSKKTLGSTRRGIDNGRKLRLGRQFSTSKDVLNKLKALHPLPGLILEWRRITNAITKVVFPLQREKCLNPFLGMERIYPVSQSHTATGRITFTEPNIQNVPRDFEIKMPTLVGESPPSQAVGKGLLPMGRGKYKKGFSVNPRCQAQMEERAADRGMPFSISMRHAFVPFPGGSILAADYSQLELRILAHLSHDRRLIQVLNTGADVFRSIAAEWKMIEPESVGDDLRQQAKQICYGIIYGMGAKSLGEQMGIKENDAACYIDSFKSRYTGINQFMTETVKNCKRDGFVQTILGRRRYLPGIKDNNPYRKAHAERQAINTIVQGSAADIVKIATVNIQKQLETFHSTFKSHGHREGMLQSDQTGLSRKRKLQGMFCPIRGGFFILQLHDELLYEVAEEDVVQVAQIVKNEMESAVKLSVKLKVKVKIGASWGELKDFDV

By pIC50 is commonly meant the IC50 on a negative log10 scale, so that one unit is a factor of ten. A higher pIC50 goes with a small IC50. Compound `COc1nnc(NC(=O)c2cnc(C)cc2-c2c(OC)ccc3scnc23)s1` showed a negative logarithm of the IC50 (pIC50) of less than 5.00.
